According to patent US20010044384A1, “Method of preventing premature fruit drop from apple trees” (priority 1998, published 2001):

Assays:
Assay type in all cases: in vivo
McIntosh® Apple trees [1] = assay: Example 2: cyclanilide vs ReTain vs untreated on apple trees, results just before harvest; conditions: for % cumulative fruit dropped from tree / Fruit Starch Index: just before harvest
From the text: An orchard of McIntosh® Apple trees at a stage where the apples were approximately 4.5 cm in diameter were sprayed with an aqueous suspension comprising cyclanilide and Regulaid®, a non-ionic surfactant (0.25% v/v) at several rates. About two months later, the following observations were made:
The process of Example 1 was repeated using an aqueous suspension comprising cyclanilide and a surfactant using an application rate of cyclanilide of 50 g/ha. As a comparison, ReTain® ([S]-trans-2-amino-4-(2-aminoethoxy)-3-butenoic acid) was applied according to commercially acceptable methods on another plot of trees and another plot of trees were left untreated.
Just before harvest, the following results were obtained: […]

McIntosh® Apple trees [2] = assay: Example 1: spraying McIntosh apple trees with cyclanilide suspension, observations about two months later; conditions: about two months after spraying; for % fruit dropped from tree: with Regulaid 0.25% v/v
From the text: An orchard of McIntosh® Apple trees at a stage where the apples were approximately 4.5 cm in diameter were sprayed with an aqueous suspension comprising cyclanilide and Regulaid®, a non-ionic surfactant (0.25% v/v) at several rates. About two months later, the following observations were made: […]

apple trees = assay: General findings on apples treated by the method of the invention (description)
[3] = compared with untreated fruit and fruit treated by prior art compounds

SMILES	% cumulative fruit dropped from tree (McIntosh® Apple trees [1]; 125 g/ha of ingredient) [%]	Fruit Starch Index (McIntosh® Apple trees [1]; 125 g/ha of ingredient)	BRIX index (soluble solids) (McIntosh® Apple trees [2]; cyclanilide 50 g/ha)	Fruit Starch Index (McIntosh® Apple trees [2]; cyclanilide 50 g/ha)	% fruit dropped from tree (McIntosh® Apple trees [2]; cyclanilide 50 g/ha) [%]	BRIX index (soluble solids) (McIntosh® Apple trees [2]; cyclanilide 100 g/ha)	Fruit Starch Index (McIntosh® Apple trees [2]; cyclanilide 100 g/ha)	% fruit dropped from tree (McIntosh® Apple trees [2]; cyclanilide 100 g/ha) [%]	BRIX index (soluble solids) (McIntosh® Apple trees [2]; cyclanilide 200 g/ha)	Fruit Starch Index (McIntosh® Apple trees [2]; cyclanilide 200 g/ha)	% fruit dropped from tree (McIntosh® Apple trees [2]; cyclanilide 200 g/ha) [%]	starch content of apples (apple trees; compared with apples not treated)	color characteristic of apples (apple trees; compared with fruit treated by prior art compounds)	content of soluble solids as measured by the BRIX index (apple trees; [3])	firmness of apples (apple trees; [3])	amount of fruit drop as a function of the amount applied (apple trees; general statement)	% cumulative fruit dropped from tree (McIntosh® Apple trees [1]; 50 g/ha of ingredient) [%]	Fruit Starch Index (McIntosh® Apple trees [1]; 50 g/ha of ingredient)	color of the fruit (McIntosh® Apple trees [1]; cyclanilide 50 g/ha, compared with ReTain-treated fruit)	overall quality of fruit (McIntosh® Apple trees [1]; cyclanilide 50 g/ha, compared with untreated fruit and ReTain-treated fruit)
NCCO/C=C/[C@H](N)C(=O)O (stereo in doubt) [ReTain ®, [S]-trans-2-amino-4-(2-aminoethoxy)-3-butenoic acid, reference compound]	68.2	5.4	–	–	–	–	–	–	–	–	–	–	–	–	–	–	–	–	–	–
O=C(O)C1(C(=O)Nc2ccc(Cl)cc2Cl)CC1 [cyclanilide, 1-(2,4-dichloroanilinocarbonyl)cyclopropane carboxylic acid]	–	–	13	5.1	6	12.9	5.0	9.8	13.0	4.9	13.5	lower starch content than apples not treated by the method of the invention	better color characteristic than fruit treated by prior art compounds	higher content of soluble solids than untreated fruit and than fruit treated by prior art compounds	greater firmness than untreated fruit and than fruit treated by prior art compounds	generally decreases as a function of the amount of cyclanilide applied	47.4	5.0	better than that of the fruit treated by the prior art compound ReTain®	better than that of the untreated fruit and that obtained from treatment by the prior art compound ReTain®
